According to ChEMBL document CHEMBL3621077, “Synthesis of hybrid anticancer agents based on kinase and histone deacetylase inhibitors” (Medchemcomm, 2014):
The source made the active and inactive calls. No cut-off for these calls is given here.

Columns and labels:
SK-MEL-28 = test: Cytotoxicity against human SK-MEL-28 cells; format: functional
[1] = biological target: Platelet-derived growth factor receptor beta (Homo sapiens, UniProt P09619); test: Inhibition of PDGFRb (unknown origin); settings: read-out: IC50
HT-29 = test: Cytotoxicity against human HT-29 cells; format: functional
[2] = Cytotoxicity against human Hs 578T cells; format: functional
Histone deacetylase = format: cell-based, Homo sapiens; settings: hela
T47D = test: Cytotoxicity against human T47D cells; format: functional
HCC 2998 = test: Cytotoxicity against human HCC2998 cells; format: functional
MOLT-4 = test: Cytotoxicity against human MOLT4 cells; format: functional
IGROV-1 = test: Cytotoxicity against human IGROV1 cells; format: functional
SNB-75 = test: Cytotoxicity against human SNB75 cells; format: functional
SNB-19 = test: Cytotoxicity against human SNB19 cells; format: functional
UACC-257 = test: Cytotoxicity against human UACC257 cells; format: functional
U-251 = test: Cytotoxicity against human U251 cells; format: functional
PC-3 = test: Cytotoxicity against human PC3 cells; format: functional
Xenopus laevis [3] = organism: Xenopus laevis; test: Inhibition of angiogenesis in Xenopus laevis embryo heart assessed as decrease in Egfl7 mRNA level at 10 to 100 uM at stage 9 incubated for 72 hrs until stage 38 measured by WISH method; format: functional, organism-based
MDA-MB-468 = test: Cytotoxicity against human MDA-MB-468 cells; format: functional
BT-549 = test: Cytotoxicity against human BT549 cells; format: functional
Histone deacetylase 2 = Histone deacetylase 2 (Homo sapiens, UniProt Q92769)
Histone deacetylase 2, sequence (Q92769 whole entry): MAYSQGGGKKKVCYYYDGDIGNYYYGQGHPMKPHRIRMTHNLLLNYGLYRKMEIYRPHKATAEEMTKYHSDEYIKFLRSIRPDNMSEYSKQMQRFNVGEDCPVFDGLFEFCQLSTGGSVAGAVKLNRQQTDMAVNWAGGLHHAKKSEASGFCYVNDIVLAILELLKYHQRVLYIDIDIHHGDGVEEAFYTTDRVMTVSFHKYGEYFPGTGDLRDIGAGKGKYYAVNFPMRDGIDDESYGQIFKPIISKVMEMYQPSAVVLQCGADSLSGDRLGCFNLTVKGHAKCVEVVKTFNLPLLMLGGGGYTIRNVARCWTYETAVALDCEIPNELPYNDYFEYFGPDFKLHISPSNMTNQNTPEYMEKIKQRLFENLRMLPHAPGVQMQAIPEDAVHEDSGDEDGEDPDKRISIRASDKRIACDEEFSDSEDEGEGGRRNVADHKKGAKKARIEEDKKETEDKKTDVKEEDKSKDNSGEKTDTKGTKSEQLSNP

Malme-3M = test: Cytotoxicity against human MALME-3M cells; format: functional
[4] = biological target: Platelet-derived growth factor receptor alpha (Homo sapiens, UniProt P16234); test: Inhibition of PDGFRa (unknown origin); settings: read-out: IC50
Platelet-derived growth factor receptor alpha, sequence (P16234 whole entry): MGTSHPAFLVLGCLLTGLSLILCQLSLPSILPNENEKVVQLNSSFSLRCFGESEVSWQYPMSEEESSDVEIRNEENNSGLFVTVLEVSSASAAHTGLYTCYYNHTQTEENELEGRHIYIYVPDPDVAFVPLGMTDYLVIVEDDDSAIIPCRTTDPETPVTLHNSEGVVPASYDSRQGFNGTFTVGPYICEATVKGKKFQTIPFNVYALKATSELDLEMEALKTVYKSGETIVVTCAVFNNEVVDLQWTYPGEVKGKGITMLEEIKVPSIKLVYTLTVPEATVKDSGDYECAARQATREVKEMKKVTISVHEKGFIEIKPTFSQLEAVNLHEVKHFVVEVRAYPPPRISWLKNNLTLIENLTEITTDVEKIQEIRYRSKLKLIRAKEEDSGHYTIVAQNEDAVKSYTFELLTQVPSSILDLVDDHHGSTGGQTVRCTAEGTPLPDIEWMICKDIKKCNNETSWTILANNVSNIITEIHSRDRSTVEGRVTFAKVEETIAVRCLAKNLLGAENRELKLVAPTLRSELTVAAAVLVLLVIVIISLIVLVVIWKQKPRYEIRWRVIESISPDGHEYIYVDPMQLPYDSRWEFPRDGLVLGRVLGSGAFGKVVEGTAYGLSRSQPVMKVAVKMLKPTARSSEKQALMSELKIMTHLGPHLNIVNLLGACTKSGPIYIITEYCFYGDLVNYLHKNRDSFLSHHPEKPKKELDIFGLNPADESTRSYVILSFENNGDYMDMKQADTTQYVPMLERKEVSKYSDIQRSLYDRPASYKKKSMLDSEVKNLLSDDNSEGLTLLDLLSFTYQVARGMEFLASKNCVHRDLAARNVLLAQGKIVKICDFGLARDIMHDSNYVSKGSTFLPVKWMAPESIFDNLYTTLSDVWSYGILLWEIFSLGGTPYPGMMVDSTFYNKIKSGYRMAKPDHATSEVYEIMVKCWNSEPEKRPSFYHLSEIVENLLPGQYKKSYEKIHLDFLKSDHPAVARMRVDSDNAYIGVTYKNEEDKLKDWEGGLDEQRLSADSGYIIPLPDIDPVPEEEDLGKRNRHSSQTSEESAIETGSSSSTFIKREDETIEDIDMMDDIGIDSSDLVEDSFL

NCI-H322M = test: Cytotoxicity against human NCI-H322M cells; format: functional
NCI-H460 = test: Cytotoxicity against human NCI-H460 cells; format: functional
CAKI-1 = test: Cytotoxicity against human Caki1 cells; format: functional
HL-60(TB) = test: Cytotoxicity against human HL-60(TB) cells; format: functional
MDA-MB-231 [5] = test: Cytotoxicity against human MDA-MB-231 cells; format: functional
A549 = test: Cytotoxicity against human A549 cells; format: functional
Histone deacetylase 3 = Histone deacetylase 3 (Homo sapiens, UniProt O15379); test: Inhibition of HDAC3 (unknown origin)
Histone deacetylase 3, sequence (O15379 whole entry): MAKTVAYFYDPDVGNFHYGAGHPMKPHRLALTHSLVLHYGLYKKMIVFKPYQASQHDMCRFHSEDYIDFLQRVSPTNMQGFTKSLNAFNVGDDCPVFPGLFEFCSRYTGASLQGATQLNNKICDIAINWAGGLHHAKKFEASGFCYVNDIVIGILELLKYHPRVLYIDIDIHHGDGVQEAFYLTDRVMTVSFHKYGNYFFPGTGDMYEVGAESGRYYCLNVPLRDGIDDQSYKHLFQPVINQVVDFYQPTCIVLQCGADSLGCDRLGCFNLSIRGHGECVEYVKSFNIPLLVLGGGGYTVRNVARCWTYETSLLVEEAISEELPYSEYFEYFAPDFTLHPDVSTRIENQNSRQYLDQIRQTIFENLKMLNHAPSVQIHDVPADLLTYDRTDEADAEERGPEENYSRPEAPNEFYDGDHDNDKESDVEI

[6] = biological target: Vascular endothelial growth factor receptor 1 (Homo sapiens, UniProt P17948); test: Inhibition of VEGFR1 (unknown origin); settings: read-out: IC50
Vascular endothelial growth factor receptor 1, sequence (P17948 whole entry): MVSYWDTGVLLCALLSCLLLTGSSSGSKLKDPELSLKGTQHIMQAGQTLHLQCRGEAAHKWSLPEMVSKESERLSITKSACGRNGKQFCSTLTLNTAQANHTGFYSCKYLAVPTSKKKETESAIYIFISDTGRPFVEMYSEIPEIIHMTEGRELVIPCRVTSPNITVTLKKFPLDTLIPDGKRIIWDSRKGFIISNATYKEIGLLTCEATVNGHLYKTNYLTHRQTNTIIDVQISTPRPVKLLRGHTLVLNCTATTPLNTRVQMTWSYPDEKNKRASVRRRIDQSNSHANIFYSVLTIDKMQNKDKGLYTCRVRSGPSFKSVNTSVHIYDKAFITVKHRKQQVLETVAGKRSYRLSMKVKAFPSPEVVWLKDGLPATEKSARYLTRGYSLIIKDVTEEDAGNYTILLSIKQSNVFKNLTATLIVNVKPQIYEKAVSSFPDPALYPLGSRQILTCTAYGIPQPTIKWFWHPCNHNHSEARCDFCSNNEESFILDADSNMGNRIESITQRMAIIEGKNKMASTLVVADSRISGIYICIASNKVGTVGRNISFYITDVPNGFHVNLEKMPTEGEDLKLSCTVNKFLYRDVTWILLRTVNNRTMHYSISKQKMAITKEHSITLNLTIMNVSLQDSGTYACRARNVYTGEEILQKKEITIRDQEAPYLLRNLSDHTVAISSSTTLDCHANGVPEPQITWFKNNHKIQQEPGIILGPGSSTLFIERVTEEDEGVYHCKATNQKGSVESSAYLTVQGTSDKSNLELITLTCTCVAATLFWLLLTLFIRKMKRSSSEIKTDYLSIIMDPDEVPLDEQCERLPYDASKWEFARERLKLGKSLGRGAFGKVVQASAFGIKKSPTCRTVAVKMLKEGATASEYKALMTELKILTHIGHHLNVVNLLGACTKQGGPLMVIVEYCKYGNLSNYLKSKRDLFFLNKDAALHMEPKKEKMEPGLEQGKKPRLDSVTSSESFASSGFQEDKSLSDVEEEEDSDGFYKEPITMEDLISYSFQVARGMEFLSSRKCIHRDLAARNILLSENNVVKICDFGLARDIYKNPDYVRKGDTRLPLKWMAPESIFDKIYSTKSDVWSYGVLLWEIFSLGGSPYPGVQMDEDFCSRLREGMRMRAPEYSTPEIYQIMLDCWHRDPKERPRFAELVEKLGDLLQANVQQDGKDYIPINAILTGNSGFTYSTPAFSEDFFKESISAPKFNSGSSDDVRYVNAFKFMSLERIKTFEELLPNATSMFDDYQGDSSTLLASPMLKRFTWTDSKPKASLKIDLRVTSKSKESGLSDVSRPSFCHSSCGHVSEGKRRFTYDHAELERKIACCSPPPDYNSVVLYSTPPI

Histone deacetylase 8 = biological target: T1, Histone deacetylase 8 (Homo sapiens, UniProt Q9BY41); test: Inhibition of HDAC8 (unknown origin); settings: read-out: IC50
T1 sequence (Q9BY41 whole entry): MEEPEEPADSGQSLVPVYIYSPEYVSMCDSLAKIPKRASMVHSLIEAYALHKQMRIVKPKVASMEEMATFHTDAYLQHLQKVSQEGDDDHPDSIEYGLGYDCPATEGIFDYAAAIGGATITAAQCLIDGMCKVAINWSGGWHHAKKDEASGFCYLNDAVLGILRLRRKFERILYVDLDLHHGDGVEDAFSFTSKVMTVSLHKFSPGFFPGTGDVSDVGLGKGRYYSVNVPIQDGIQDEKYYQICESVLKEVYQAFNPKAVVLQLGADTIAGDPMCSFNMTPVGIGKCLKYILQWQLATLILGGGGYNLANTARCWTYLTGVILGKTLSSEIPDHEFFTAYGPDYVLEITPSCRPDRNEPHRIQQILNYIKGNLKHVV

Histone deacetylase 7 = biological target: T2, Histone deacetylase 7 (Homo sapiens, UniProt Q8WUI4); test: Inhibition of HDAC7 (unknown origin)
T2 sequence (Q8WUI4 whole entry): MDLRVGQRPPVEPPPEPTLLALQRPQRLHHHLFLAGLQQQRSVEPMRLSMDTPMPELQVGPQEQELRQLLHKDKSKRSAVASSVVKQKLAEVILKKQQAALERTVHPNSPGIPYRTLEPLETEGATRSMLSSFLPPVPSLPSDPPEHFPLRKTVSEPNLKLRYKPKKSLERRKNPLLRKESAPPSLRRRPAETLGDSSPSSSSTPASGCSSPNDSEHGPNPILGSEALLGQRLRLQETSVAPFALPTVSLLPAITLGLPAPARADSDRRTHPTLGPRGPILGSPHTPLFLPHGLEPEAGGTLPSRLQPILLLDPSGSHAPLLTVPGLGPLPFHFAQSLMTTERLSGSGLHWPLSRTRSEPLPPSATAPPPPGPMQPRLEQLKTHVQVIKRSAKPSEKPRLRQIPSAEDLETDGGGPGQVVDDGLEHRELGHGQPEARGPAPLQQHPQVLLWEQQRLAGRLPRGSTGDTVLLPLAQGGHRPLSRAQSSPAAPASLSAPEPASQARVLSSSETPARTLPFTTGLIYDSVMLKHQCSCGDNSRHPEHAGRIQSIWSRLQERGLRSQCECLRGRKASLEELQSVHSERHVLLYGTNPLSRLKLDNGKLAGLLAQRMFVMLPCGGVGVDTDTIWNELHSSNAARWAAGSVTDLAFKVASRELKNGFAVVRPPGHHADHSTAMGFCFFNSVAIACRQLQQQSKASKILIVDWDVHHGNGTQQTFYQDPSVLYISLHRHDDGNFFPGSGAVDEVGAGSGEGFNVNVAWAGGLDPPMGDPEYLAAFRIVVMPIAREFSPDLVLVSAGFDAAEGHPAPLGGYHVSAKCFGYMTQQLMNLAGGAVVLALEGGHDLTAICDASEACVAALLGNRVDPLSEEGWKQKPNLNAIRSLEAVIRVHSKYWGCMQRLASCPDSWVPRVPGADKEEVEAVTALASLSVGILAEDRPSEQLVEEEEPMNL

OVCAR-4 = test: Cytotoxicity against human OVCAR4 cells; format: functional
[7] = Cytotoxicity against human NCI-ADR-RES cells; format: functional
Histone deacetylase 1 = Histone deacetylase 1 (Homo sapiens, UniProt Q13547); test: Inhibition of HDAC1 (unknown origin)
Histone deacetylase 1, sequence (Q13547 whole entry): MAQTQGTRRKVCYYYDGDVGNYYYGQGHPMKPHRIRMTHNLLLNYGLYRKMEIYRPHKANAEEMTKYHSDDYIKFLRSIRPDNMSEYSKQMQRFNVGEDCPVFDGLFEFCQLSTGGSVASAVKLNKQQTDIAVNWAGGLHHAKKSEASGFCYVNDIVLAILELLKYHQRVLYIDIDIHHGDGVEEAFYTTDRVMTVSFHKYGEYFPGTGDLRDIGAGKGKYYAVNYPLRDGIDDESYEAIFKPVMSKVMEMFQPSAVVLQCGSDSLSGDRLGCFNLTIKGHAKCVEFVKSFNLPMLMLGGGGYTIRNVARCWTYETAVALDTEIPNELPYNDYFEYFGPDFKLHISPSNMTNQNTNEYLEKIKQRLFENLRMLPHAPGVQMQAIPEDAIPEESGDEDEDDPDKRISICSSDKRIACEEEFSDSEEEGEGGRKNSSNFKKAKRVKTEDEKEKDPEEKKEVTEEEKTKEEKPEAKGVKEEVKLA

KM12 = test: Cytotoxicity against human KM12 cells; format: functional
ACHN = test: Cytotoxicity against human ACHN cells; format: functional
Xenopus laevis [8] = organism: Xenopus laevis; settings: at 10 to 100 µM
MDA-MB-231 [9] = test: Cytotoxicity against human MDA-MB-231 cells assessed as reduction of cell viability after 72 hrs by MTT assay; format: functional, cell-based; settings: MDA-MB-231, 72 h
DU-145 = test: Cytotoxicity against human DU145 cells; format: functional
Histone deacetylase 4 = Histone deacetylase 4 (Homo sapiens, UniProt P56524); test: Inhibition of HDAC4 (unknown origin)
Histone deacetylase 4, sequence (P56524 whole entry): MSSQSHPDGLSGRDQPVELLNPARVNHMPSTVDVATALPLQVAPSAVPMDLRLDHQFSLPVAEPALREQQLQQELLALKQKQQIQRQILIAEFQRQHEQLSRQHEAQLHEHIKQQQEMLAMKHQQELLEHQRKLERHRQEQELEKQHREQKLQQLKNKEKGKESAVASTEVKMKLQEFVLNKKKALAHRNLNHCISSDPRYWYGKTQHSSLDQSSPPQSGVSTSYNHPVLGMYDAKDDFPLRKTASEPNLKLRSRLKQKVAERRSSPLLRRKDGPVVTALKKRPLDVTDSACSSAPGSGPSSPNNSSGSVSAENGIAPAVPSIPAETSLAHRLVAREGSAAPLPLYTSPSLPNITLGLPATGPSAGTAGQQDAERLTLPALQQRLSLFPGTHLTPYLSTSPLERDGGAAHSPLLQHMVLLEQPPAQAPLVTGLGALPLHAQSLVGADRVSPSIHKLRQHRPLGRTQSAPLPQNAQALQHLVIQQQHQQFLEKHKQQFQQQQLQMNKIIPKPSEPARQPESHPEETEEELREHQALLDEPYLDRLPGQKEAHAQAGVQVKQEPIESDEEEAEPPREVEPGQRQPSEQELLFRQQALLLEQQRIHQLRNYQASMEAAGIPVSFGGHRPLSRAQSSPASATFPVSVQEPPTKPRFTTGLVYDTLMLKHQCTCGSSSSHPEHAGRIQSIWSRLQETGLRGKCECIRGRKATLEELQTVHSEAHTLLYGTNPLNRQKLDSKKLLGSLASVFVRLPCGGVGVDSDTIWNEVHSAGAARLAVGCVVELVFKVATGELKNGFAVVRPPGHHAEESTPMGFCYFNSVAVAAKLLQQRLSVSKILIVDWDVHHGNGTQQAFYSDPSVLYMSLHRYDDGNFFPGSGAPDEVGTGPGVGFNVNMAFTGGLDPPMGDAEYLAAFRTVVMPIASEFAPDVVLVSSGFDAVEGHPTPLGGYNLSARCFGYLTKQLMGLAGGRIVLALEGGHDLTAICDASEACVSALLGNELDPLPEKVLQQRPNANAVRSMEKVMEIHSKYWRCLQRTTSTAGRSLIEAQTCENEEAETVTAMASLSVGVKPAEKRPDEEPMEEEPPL

OVCAR-8 = test: Cytotoxicity against human OVCAR8 cells; format: functional
HCT-15 = test: Cytotoxicity against human HCT15 cells; format: functional
COLO 205 = test: Cytotoxicity against human COLO205 cells; format: functional

O=C(CCCCCCC(=O)Nc1ccc2c(c1)/C(=C/c1ccc[nH]1)C(=O)N2)NO
GI50 (SK-MEL-28): 406 nM
IC50 [1]: 185 nM
GI50 (HT-29): 612 nM
GI50 [2]: 1020 nM
IC50 (Histone deacetylase): 117 nM
GI50 (T47D): 45 nM
GI50 (HCC 2998): 1640 nM
GI50 (MOLT-4): 302 nM
GI50 (IGROV-1): 167 nM
GI50 (SNB-75): 194 nM
GI50 (SNB-19): 644 nM
GI50 (UACC-257): 370 nM
GI50 (U-251): 420 nM
GI50 (PC-3): 917 nM
inhibition (Xenopus laevis [3]): Active
GI50 (MDA-MB-468): 194 nM
GI50 (BT-549): 1940 nM
IC50 (Histone deacetylase 2): 1.11 nM
GI50 (Malme-3M): 86 nM
IC50 [4]: 1190 nM
GI50 (NCI-H322M): 1020 nM
GI50 (NCI-H460): 2740 nM
GI50 (CAKI-1): 2330 nM
GI50 (HL-60(TB)): 477 nM
GI50 (MDA-MB-231 [5]): 1000 nM
GI50 (A549): 2900 nM
IC50 (Histone deacetylase 3): 0.669 nM
IC50 [6]: 365 nM
IC50 (Histone deacetylase 8): 60.2 nM
IC50 (Histone deacetylase 7): Not Active
GI50 (OVCAR-4): 1270 nM
GI50 [7]: 4000 nM
IC50 (Histone deacetylase 1): 0.00687 nM
GI50 (KM12): 960 nM
GI50 (ACHN): 1150 nM
inhibition (Xenopus laevis [8]): Active
IC50 (MDA-MB-231 [9]): 29000 nM
GI50 (DU-145): 1020 nM
IC50 (Histone deacetylase 4): Not Active
GI50 (OVCAR-8): 499 nM
GI50 (HCT-15): 4590 nM
GI50 (COLO 205): 248 nM
